Measured values published in US12128050B2, “KP372-1-induced DNA damage as a chemotherapeutic approach to treat cancer” (New Mexico Tech University Research Park Corporation, priority 2020, dated 2024).

How the values were obtained:
Type in all cases: cell-based
MIA PaCa-2 cells [1] = test: DNA content assay (relative survival), MIA PaCa-2; conditions: 2 h
Experimental: (§1) DNA content assay: A modified cell survival assay measuring DNA content over ˜7-day period was utilized. Cells were seeded at 10,000 cells/well in 48-well plates in 0.5 mL of media. […] The cells were exposed for 2 hours (2 h) and the media were again aspirated and replaced with fresh media (without KP372-1). The cells were then allowed to grow for ˜7 days or until control samples became confluent. […] The DNA content was determined by measuring florescence signal using a Victor X5 plate reader. Fluorescence values of treated samples were normalized to that of control samples and plotted as means±SEM for treated over control (i.e., DMSO) treated (T/C) samples. The reported values are the results of the following sample sizes for KP372-1±DIC: MIA PaCa-2 concentration (n=5); Capan-2 concentration (n=3); MIA PaCa-2±siSCR/siNQO1 (n=3); hTERT-HPNE (n=3); PANC-1 (n=3); AsPC-1 (n=4); BxPC-3 (n=3); MIA PaCa-2 time (n=3); Capan-2 time (n=3). The reported values are the results of the following sample sizes for β-lap±DIC: MIA PaCa-2 (n=4) and Capan-2 (n=4).

Capan-2 cells = test: DNA content assay (relative survival), Capan-2; conditions: 2 h
Experimental: as §1

MIA PaCa-2 cells [2] = test: KP372-1 + BMN 673 combination survival / synergy (CompuSyn); conditions: Fa=0.9; 0.075 μM KP372-1 + 1 μM BMN 673 in combination
Experimental: DNA content assay: A modified cell survival assay measuring DNA content over ˜7-day period was utilized. Cells were seeded at 10,000 cells/well in 48-well plates in 0.5 mL of media. The next day, media were aspirated and replaced with 0.5 mL media containing the indicated concentrations of KP372-1 (μM) alone or in combination with 50 μM DIC. The cells were exposed for 2 hours (2 h) and the media were again aspirated and replaced with fresh media (without KP372-1). The cells were then allowed to grow for ˜7 days or until control samples became confluent. Cells were then lysed in 250 μl dI water, then freeze-thawed followed by suspension in 0.5 mL 1× TNE buffer containing Hoechst 33258 fluorescent dye. The DNA content was determined by measuring florescence signal using a Victor X5 plate reader. Fluorescence values of treated samples were normalized to that of control samples and plotted as means±SEM for treated over control (i.e., DMSO) treated (T/C) samples. […]
Synergy calculations: Drug synergy was calculated using CompuSyn 1.0 software (www.combosyn.com). […] Then, cell survival was assessed via DNA content assay similarly to as described above. […] Dose-Reduction Index (DRI) values were calculated using the Chou-Talalay method. Briefly, DRI values are calculated using the following equation: DRI=(Dx)1/(D)1 where (Dx)1 is the dose of the drug alone and (D)1 is the dose of the drug in combination. […]

Row | Structure (SMILES) | concentration up to which no appreciable toxicity was induced (MIA PaCa-2 cells [1]) | concentration up to which no appreciable toxicity was induced (Capan-2 cells) | dose reduction index (DRI) (MIA PaCa-2 cells [2])
1 | CC1(C)CCC2=C(O1)c1ccccc1C(=O)C2=O [β-lap, β-lapachone] | up to 2.0 μM | up to 1.0 μM | –
2 | Cn1ncnc1[C@H]1c2n[nH]c(=O)c3cc(F)cc(c23)N[C@@H]1c1ccc(F)cc1 [BMN 673, talazoparib] | – | – | 3.99
